Measured values published in PMC7613998, “Development of selective inhibitors of phosphatidylinositol 3-kinase C2α” (Nature Chemical Biology, 2022).

How the values were obtained:
Assay in all cases: biochemical
Design in all cases: SelectScreen Adapta purified lipid kinase panel, 1 uM compound, 10 uM ATP, per cent inhibition
Conditions in all cases: ATP=10; Technology=Adapta; 10 uM ATP
PIK3C2B (PI3K-C2 beta) = PIK3C2B (PI3K-C2 beta) (Homo sapiens, UniProt O00750)
Description: (§1) As PI3KC2α is related to other PI3Ks and to PI3K-like protein kinases such as mTOR, the selectivity of PITCOINs was determined in a panel of biochemical assays. […] Finally, the high specificity of PITCOINs for PI3KC2α was verified by Kinobead profiling experiments. In this approach, the ability of PITCOINs to compete the affinity capture of cellular kinases on immobilized nonselective kinase inhibitors (Kinobeads) is analyzed by mass spectrometry (MS)[31]. […] Four nonkinase weak off-targets were globally found for the three inhibitors with only FECH[32] common to the three PITCOINs (Supplementary Dataset).  Extended Data Fig. 2 Lipid kinase inhibitor profile of PITCOIN1-3. (a–c) Selectivity profiling of PITCOIN1-3 (1 µM) with purified lipid kinases in the presence of 10 µM ATP. […] Data are presented as mean ± SD from two independent experiments. (d, e) IC50 measurements of PITCOIN1-3 against purified recombinant class I PI3K p110α/p85α (d) or purified class III PI3K VPS34 complex II (e). 10 µM ATP and 20 µM PIP3 (for p110α/p85α) or 200 µM PI (for VPS34 complex II) were used as substrates. […] Data are presented as mean ± SD from two independent experiments. Source data

PIK3C2G (PI3K-C2 gamma) = biological target: T1, PIK3C2G (PI3K-C2 gamma) (Homo sapiens, UniProt O75747)
T1 sequence (O75747 1-1486): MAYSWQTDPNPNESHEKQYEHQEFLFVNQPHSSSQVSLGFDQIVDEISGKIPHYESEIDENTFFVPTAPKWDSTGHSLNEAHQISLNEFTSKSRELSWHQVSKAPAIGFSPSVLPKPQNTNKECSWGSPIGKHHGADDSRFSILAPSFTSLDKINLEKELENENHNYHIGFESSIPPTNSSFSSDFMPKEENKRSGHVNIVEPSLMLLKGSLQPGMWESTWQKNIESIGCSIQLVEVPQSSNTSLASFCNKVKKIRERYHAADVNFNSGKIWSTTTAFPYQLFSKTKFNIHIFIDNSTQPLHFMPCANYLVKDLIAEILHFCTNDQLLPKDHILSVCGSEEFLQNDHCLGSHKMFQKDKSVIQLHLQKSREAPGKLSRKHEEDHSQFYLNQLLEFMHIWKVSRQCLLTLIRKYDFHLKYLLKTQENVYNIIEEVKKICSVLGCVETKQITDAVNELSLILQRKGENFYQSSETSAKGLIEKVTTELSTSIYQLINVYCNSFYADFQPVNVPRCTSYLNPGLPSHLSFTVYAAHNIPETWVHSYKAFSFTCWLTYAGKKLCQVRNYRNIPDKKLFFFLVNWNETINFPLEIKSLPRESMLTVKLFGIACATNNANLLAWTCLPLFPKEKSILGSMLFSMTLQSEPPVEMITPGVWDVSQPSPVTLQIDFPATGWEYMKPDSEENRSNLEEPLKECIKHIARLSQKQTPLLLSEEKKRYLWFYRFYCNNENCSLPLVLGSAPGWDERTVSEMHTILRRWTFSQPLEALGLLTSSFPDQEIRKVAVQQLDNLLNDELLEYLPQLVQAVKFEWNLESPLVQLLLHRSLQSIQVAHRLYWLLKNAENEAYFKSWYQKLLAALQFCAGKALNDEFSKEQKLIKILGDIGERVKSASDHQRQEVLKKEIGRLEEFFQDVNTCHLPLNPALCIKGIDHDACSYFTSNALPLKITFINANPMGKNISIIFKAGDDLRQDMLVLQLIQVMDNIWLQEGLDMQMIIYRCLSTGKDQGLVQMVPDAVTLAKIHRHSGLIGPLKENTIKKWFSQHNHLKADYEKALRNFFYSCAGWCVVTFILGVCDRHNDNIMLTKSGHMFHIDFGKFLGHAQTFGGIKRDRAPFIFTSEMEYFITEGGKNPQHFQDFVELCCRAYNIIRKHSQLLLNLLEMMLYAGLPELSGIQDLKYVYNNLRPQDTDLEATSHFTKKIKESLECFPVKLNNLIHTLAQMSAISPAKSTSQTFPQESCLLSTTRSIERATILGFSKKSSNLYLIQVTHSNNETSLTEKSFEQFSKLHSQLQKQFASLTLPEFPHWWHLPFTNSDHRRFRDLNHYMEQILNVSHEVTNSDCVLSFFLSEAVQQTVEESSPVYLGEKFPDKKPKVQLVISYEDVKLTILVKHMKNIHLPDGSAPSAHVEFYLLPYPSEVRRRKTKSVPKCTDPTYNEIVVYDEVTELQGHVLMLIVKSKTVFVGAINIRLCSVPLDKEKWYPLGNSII
Description: as §1

PIK3C3 (hVPS34) = PIK3C3 (hVPS34) (Homo sapiens, UniProt Q8NEB9)
Description: as §1

PIK3CG (p110 gamma) = PIK3CG (p110 gamma) (Homo sapiens, UniProt P48736)
Description: as §1

PIP4K2A = biological target: T2, PIP4K2A (Homo sapiens, UniProt P48426)
T2 sequence (P48426 1-406): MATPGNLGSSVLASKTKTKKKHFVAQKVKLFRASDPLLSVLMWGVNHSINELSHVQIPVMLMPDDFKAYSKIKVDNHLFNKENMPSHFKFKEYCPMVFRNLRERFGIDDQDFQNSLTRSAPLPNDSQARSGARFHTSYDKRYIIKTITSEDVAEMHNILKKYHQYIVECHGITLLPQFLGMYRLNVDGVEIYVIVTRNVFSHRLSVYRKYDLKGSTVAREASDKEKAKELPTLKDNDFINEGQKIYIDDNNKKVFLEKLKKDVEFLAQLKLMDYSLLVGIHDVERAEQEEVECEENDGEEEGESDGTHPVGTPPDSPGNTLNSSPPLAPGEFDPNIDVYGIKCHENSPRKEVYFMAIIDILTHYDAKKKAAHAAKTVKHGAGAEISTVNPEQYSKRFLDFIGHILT
Description: as §1

PIP5K1C = PIP5K1C (Homo sapiens, UniProt O60331)
Description: as §1

Chain of PIK3C3 (hVPS34) (Q8NEB9 whole entry): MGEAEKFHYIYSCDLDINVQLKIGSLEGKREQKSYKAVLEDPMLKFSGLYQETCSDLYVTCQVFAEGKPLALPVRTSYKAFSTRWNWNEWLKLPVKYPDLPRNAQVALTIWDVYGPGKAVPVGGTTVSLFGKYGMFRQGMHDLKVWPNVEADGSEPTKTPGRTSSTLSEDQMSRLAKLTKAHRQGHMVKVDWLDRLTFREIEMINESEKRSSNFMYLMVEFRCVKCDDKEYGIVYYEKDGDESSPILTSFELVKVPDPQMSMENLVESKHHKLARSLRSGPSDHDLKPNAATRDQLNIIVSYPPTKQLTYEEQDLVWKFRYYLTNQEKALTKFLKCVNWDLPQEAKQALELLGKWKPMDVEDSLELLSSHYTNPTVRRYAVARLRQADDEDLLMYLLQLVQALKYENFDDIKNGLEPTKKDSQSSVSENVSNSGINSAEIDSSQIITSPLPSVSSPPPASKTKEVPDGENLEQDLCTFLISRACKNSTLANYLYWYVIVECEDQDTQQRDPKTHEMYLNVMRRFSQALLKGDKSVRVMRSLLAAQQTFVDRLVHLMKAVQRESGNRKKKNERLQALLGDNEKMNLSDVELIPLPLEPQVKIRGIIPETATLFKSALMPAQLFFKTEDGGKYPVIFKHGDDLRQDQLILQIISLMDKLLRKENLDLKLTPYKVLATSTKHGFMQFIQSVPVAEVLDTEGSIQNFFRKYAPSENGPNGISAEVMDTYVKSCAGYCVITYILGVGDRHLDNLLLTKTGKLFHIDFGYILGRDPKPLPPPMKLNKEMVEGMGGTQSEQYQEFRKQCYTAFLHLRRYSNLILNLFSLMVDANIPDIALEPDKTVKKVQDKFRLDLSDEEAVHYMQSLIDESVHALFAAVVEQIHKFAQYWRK
Chain of PIP5K1C (O60331 whole entry): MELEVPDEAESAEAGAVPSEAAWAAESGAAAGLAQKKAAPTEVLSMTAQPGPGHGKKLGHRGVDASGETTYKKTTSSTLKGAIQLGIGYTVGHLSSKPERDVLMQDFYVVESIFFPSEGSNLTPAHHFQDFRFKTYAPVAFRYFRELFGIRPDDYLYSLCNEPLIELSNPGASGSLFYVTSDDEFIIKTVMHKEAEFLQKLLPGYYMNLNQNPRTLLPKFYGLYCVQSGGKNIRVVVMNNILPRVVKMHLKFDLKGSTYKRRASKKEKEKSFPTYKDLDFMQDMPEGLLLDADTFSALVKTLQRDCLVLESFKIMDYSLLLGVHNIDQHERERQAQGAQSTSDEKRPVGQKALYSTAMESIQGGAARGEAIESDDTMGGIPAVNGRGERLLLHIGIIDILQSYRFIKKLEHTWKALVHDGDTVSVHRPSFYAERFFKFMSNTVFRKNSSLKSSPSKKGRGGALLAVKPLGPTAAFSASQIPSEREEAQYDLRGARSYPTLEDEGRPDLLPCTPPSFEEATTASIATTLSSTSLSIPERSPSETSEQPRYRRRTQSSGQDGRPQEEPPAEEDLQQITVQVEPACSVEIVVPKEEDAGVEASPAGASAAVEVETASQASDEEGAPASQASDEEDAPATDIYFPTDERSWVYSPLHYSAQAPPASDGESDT
Chain of PIK3CG (p110 gamma) (P48736 whole entry): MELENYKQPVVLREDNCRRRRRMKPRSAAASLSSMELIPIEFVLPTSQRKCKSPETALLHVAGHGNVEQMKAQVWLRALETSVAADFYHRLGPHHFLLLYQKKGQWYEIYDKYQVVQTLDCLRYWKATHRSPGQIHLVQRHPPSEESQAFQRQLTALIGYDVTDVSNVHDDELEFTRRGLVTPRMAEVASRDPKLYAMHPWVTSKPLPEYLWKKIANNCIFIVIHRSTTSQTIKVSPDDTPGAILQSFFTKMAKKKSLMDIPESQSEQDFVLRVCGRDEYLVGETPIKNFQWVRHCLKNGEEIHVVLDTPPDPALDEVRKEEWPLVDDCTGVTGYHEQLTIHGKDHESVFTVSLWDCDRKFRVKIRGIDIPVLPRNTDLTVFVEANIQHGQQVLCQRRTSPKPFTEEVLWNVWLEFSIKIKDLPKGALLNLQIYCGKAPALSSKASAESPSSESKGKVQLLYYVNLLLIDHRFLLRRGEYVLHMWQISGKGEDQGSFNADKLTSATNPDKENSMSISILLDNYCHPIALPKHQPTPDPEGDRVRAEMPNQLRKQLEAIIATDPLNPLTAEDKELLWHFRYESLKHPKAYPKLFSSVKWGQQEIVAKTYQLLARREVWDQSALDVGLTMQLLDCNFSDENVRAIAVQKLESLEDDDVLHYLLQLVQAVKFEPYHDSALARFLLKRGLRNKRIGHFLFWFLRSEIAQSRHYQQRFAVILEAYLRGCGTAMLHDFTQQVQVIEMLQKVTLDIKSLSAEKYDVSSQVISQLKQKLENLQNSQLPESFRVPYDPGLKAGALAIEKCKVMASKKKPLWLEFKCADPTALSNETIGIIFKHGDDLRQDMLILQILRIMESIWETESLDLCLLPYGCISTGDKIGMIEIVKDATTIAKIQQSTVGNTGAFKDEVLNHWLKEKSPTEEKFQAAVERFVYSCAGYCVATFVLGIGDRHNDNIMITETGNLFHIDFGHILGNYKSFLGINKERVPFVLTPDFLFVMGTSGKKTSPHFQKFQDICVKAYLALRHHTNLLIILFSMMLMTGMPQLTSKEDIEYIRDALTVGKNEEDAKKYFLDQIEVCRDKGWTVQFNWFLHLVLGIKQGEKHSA
Chain of PIK3C2B (PI3K-C2 beta) (O00750 whole entry): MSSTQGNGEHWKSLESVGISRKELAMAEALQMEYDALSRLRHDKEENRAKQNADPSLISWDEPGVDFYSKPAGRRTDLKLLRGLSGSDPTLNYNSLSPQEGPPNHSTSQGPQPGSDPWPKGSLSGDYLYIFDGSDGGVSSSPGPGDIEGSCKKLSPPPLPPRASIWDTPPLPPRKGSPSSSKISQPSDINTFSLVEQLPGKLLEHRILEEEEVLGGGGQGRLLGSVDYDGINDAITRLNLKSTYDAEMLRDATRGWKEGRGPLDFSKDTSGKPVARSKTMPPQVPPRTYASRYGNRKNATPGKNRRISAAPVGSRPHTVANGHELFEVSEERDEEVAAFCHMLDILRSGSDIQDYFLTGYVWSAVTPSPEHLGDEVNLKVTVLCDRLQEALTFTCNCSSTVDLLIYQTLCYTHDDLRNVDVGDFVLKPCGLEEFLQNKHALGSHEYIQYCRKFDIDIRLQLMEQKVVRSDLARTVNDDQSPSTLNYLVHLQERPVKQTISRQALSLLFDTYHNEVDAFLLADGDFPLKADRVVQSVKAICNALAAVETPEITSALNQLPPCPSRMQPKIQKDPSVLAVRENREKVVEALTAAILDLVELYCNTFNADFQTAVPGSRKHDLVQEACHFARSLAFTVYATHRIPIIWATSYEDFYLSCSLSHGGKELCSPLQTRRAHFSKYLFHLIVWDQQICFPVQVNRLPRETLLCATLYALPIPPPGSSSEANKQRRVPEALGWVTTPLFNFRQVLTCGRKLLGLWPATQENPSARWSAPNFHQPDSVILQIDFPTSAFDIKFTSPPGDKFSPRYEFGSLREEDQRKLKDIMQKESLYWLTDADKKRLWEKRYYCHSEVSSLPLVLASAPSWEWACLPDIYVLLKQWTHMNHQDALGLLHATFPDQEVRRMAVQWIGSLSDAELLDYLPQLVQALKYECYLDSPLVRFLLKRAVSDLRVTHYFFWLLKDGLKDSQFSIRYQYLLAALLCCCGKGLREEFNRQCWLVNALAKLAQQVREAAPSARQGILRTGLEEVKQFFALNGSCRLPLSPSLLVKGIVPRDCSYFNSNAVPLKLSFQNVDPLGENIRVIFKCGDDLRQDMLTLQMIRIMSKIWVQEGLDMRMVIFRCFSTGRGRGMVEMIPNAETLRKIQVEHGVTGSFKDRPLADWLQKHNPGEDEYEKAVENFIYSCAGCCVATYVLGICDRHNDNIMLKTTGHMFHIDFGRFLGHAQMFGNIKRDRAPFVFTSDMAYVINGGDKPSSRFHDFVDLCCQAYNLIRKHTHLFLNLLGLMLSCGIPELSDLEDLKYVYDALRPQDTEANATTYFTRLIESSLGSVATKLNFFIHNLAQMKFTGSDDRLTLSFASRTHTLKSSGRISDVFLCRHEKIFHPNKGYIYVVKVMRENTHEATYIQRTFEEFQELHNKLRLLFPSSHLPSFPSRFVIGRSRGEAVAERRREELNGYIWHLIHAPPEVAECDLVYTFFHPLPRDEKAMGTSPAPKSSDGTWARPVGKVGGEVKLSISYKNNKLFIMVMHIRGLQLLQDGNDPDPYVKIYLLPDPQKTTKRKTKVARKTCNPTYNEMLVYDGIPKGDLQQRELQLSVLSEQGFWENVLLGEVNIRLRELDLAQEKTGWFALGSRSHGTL

inhibition at 1 µM (PIK3C2B (PI3K-C2 beta)) [%]	inhibition at 1 µM (PIK3C2G (PI3K-C2 gamma)) [%]	inhibition at 1 µM (PIK3C3 (hVPS34)) [%]	inhibition at 1 µM (PIK3CG (p110 gamma)) [%]	inhibition at 1 µM (PIP4K2A) [%]	inhibition at 1 µM (PIP5K1C) [%]	Structure (SMILES)
9	6	2	9	-15	-4	CS(=O)(=O)Nc1cccc(-c2csc(NC(=O)CSc3nc4nccnc4c(=O)n3CCc3ccccc3)n2)c1 [compound 3, PITCOIN3]
12	30	-14	20	13	15	O=C(CSc1nc2nccnc2c(=O)n1CCc1ccccc1)Nc1nccs1 [compound 1, PITCOIN1]
40	9	7	16	2	-8	O=C(CSc1nc2nccnc2c(=O)n1CCc1ccccc1)Nc1nc(-c2cccc(O)c2)cs1 [compound 2, PITCOIN2]
